Key:
Assay type in all cases: in vivo
Nilaparvata lugens = experiment: Insecticidal activity against Nilaparvata lugens (Potter spray tower); settings: 24 h, 3rd instar nymphae, 1 day after treatment, read-out: Mortality rate (%) N. lugens; for mortality at 400 µg/mL: 400 μg/mL; for mortality at 100 µg/mL: 100 μg/mL
Text: (§1) Preparation of test agent. Dissolve accurately weighed tested compound in DMF to prepare 1% mother liquor, and then dilute it with distilled water containing 0.1% Tween-80 to corresponding concentrations for later use.
Insecticidal activity against Nilaparvata lugens ([Ghareeb et al., 2021]). The seedlings with two leaves and one heart were placed in a Petri dish with a bottom diameter of 3 cm and covered with white sand. After the 3rd instar nymphae of N. lugens were stunned by CO2, about 15 nymphae were received in each dish, and then 2.5 ml of the tested agent was sprayed with Potter spray tower. The mortality of N. lugens was investigated 1 day after the treatment. Each treatment was repeated three times, and DMF without the tested compound was used as a blank control.
(§2) The insecticidal activities of the test compounds against the abovementioned five insects were calculated by the following formula: P1=(K/N)×100, (1) P2=(Pt−P0)/(1−P0)×100, (2) where P1 is the mortality rate; K is the dead insect number; N is the total number of experimental insects; P2 is the corrected mortality rate; Pt is the mortality rate of treatment; P0 is the mortality rate of CK. If the mortality rate of CK is less than 5%, without the required correction, and if the mortality rate of CK is between 5 and 20%, P2 should be calculated according to formula II.

Helicoverpa armigera = experiment: Insecticidal activity against Helicoverpa armigera (soaking method); settings: Helicoverpa armigera, 48 h; 400 μg/mL; 2nd instar larvae; counted 2 days later; read-out: Mortality rate (%) H. armigera
Text: as §1
Insecticidal activity against Helicoverpa armigera. The soaking method was adopted ([Yang et al., 2022]). After soaking a proper amount of corn leaves for 10 s, they were placed in a plastic Petri dish with filter paper and dried naturally in the shade. Ten larvae of the 2nd instar H. armigera were attached to each dish and placed in an observation room at 26°C with light (16/8 h). The result was counted 2 days later, and the no-response insect body when it was lightly touched with a brush was regarded as dead. Each treatment was repeated 3 times, and DMF without the tested compound was used as a blank control.
as §2

Chilo suppressalis = experiment: Insecticidal activity against Chilo suppressalis (soaking method); settings: 96 h, 400 μg/mL, 3rd instar larvae, counted 4 days later, read-out: Mortality rate (%) C. suppressalis
Text: as §1
Insecticidal activity against Chilo suppressalis ([Huang et al., 2022]). The soaking method was adopted. The Zizania latifolia slices were soaked in a tested solution for 10 s, then taken out, and placed in a plastic Petri dish with filter paper to naturally dry in the shade. […] The result was counted 4 days later, and the no-response insect body when it was lightly touched with a brush was regarded as dead. Each treatment was repeated three times, and DMF without the tested compound was used as a blank control.
as §2

Aphis craccivora = experiment: Insecticidal activity against Aphis craccivora (Potter spray tower); settings: 400 μg/mL, counted 24 h later, read-out: Mortality rate (%) A. craccivora
Procedure: as §1
Insecticidal activity against Aphis craccivora ([Liu et al., 2022]). About 30 nymphs of alfalfa aphid were placed on a horsebean leaf dish, and then 2.5 ml of the tested agent was sprayed with Potter spray tower. After treatment, they were cultured in an observation room at 20–22°C. The result was counted 24 h later, and the no-response insect body when it was lightly touched with tweezers was regarded as dead. Each treatment was repeated three times, and DMF without the tested compound was used as a blank control.
as §2

Plutella xylostella = experiment: Insecticidal activity against Plutella xylostella (soaking method); settings: Plutella xylostella, 48 h, 2nd instar larvae, counted 2 days later, read-out: Mortality rate (%) P. xylostella; for mortality at 400 µg/mL: 400 μg/mL; for mortality at 25 µg/mL: 25 μg/mL; for mortality at 100 µg/mL: 100 μg/mL
Text: as §1
Insecticidal activity against Plutella xylostella ([Yang et al., 2021]). The soaking method was adopted. After soaking a proper amount of radish leaves for 10 s, it was placed in a plastic Petri dish with filter paper and dried naturally in the shade. Each dish was inoculated with 10 2nd instar P. xylostella larvae and placed in an observation room at 22°C with light (16/8 h). The result was counted 2 days later, and the no-response insect body when it was lightly touched with a brush was regarded as dead. Each treatment was repeated three times, and DMF without the tested compound was used as a blank control.
as §2

Row | Structure (SMILES) | mortality at 400 µg/mL (Nilaparvata lugens) [%] | mortality at 400 µg/mL (Helicoverpa armigera) [%] | mortality at 400 µg/mL (Chilo suppressalis) [%] | mortality at 400 µg/mL (Aphis craccivora) [%] | mortality at 400 µg/mL (Plutella xylostella) [%] | mortality at 100 µg/mL (Nilaparvata lugens) [%] | mortality at 25 µg/mL (Plutella xylostella) [%] | mortality at 100 µg/mL (Plutella xylostella) [%]
1 | O=C(/N=c1\ccccn1Cc1cnn(-c2cccc(F)c2)c1C(F)F)C(F)(F)C(F)(F)F [Compound C7, (E)-N-(1-((5-(difluoromethyl)-1-(3-fluorophenyl)-1H-pyrazol-4-yl)methyl)pyridin-2(1H)-ylidene)-2,2,3,3,3-pentafluoropropanamide] | 0 | 0 | 40 | 0 | 66.7 | – | – | –
2 | Cn1cc(C(=O)/N=c2\ccccn2Cc2cnn(-c3ccccc3)c2C(F)(F)F)c(C(F)F)n1 [Compound D1, (E)-3-(difluoromethyl)-1-methyl-N-(1-((1-phenyl-5-(trifluoromethyl)-1H-pyrazol-4-yl)methyl)pyridin-2(1H)-ylidene)-1H-pyrazole-4-carboxamide] | 0 | 0 | 0 | 0 | 46.7 | – | – | –
3 | Cn1cc(C(=O)/N=c2\ccccn2Cc2cnn(-c3ccccc3Cl)c2C(F)(F)F)c(C(F)F)n1 [Compound D2, (E)-N-(1-((1-(2-chlorophenyl)-5-(trifluoromethyl)-1H-pyrazol-4-yl)methyl)pyridin-2(1H)-ylidene)-3-(difluoromethyl)-1-methyl-1H-pyrazole-4-carboxamide] | 0 | 0 | 0 | 0 | 43.3 | – | – | –
4 | Cn1cc(C(=O)/N=c2\ccccn2Cc2cnn(-c3cccc(F)c3)c2C(F)(F)F)c(C(F)F)n1 [Compound D3, (E)-3-(difluoromethyl)-N-(1-((1-(3-fluorophenyl)-5-(trifluoromethyl)-1H-pyrazol-4-yl)methyl)pyridin-2(1H)-ylidene)-1-methyl-1H-pyrazole-4-carboxamide] | 100 | 0 | 0 | 0 | 63.3 | 0 | – | –
5 | Cn1cc(C(=O)/N=c2\ccccn2Cc2cnn(-c3ccc(Cl)cc3)c2C(F)(F)F)c(C(F)F)n1 [Compound D4, (E)-N-(1-((1-(4-chlorophenyl)-5-(trifluoromethyl)-1H-pyrazol-4-yl)methyl)pyridin-2(1H)-ylidene)-3-(difluoromethyl)-1-methyl-1H-pyrazole-4-carboxamide] | 0 | 0 | 0 | 0 | 100 | – | 6.7 | 60
6 | Cn1cc(C(=O)/N=c2\ccccn2Cc2cnn(-c3ccc(C(F)(F)F)cc3)c2C(F)(F)F)c(C(F)F)n1 [Compound D5, (E)-3-(difluoromethyl)-1-methyl-N-(1-((5-(trifluoromethyl)-1-(4-(trifluoromethyl)phenyl)-1H-pyrazol-4-yl)methyl)pyridin-2(1H)-ylidene)-1H-pyrazole-4-carboxamide] | 0 | 0 | 0 | 0 | 63.3 | – | – | –
7 | Cn1cc(C(=O)/N=c2\ccccn2Cc2cnn(-c3cccc(Cl)c3)c2C(F)F)c(C(F)F)n1 [Compound D6, (E)-N-(1-((1-(3-chlorophenyl)-5-(difluoromethyl)-1H-pyrazol-4-yl)methyl)pyridin-2(1H)-ylidene)-3-(difluoromethyl)-1-methyl-1H-pyrazole-4-carboxamide] | 100 | 0 | 0 | 0 | 100 | 0 | 56.7 | 100

From article PMC9574050, “Design, synthesis, and insecticidal activity of a novel series of flupyrimin analogs bearing 1-aryl-1H-pyrazol-4-yl subunits” (Frontiers in Chemistry, 2022)
